PMC11040352, “CD38‐Specific Gallium‐68 Labeled Peptide Radiotracer Enables Pharmacodynamic Monitoring in Multiple Myeloma with PET” (Advanced Science, 2024)
“And” between values parts separate entries of the source, which are not always exact repeats. Equal entries are not always repeated. Where two headings read alike, the source gives them in different places.

Tests used:
[1] = Octanol/PBS partition coefficient (LogD, pH 7.4); format: physicochemical
Description: Partition coefficients, logD (pH7.4) value, were determined according to a literature procedure.^[ [46] ^] Briefly, a 10 µL solution of [^68Ga]Ga‐AJ206 (around 10 µCi) was added to a solution of 1‐octanol (200 µL) mixed with phosphate buffered saline (PBS) (190 µL) in a 1.5 mL centrifuge tube. After the mixture was vigorously shaken and vortexed, it was centrifuged at 3000 rpm for 5 min. Aliquots (10 µL) were removed from the two phases, and the radioactivity was measured on an automated gamma counter (1282 Compugamma CS, Pharmacia/LKB Nuclear, Inc., Gaithersburg, MD). The logD was calculated as the average log ratio value of the radioactivity in the 1‐octanol fraction and the PBS fraction from the four samples.

[2] = Ex vivo biodistribution in mice with MOLP8 tumor xenografts; parameters: species or system NSG mice; settings: both sexes, NSG, mouse, 80 uCi, total radioactivity, MOLP8 xenograft mice; for tissue to tissue ratio at 5 min: 5 min p.i.; for tissue to tissue ratio at 0.5 h: 30 min p.i.; for tissue to tissue ratio at 1 h: 60 min p.i.; for tissue to tissue ratio at 2 h: 120 min p.i.
Description: (§1) Animal studies were performed under Johns Hopkins University Animal Care and Use Committee (ACUC‐approved protocol (Principal investigator: Sridhar Nimmagadda, Ph.D. and Protocol number M021M175). Male and female NSG mice (5‐6 weeks old) were used to establish xenografts by administering 3 million cells (50% Corning Matrigel) subcutaneously to form various tumor models within 3–4 weeks. Imaging or biodistribution studies (n = 3–5) were conducted on mice with tumor volumes of 100–200 mm^3. Disseminated tumor models were developed by injecting 4–5 million cells in saline intravenously for MOLP8 and MM1S‐Luc models (n = 4–5). Luciferase expressing MM1S cell line (MM1S‐Luc) was used to monitor cancer cell dissemination in the body. Tumor establishment was confirmed by injecting D‐Luciferin intraperitoneally (150 mg kg^−1) and imaged mice after 10 min in IVIS bioluminescence imaging system. Bone marrow tumors were ready for imaging after 25–30 d of implantation.
(§2) Mice with 100–200 mm^3 tumor volume were used for ex vivo biodistribution studies. For radiotracer pharmacokinetics studies, mice with MOLP8 tumor xenografts received ≈80 µCi (2.96 MBq) [^68Ga]Ga‐AJ206 and were sacrificed at pre‐determined time points (5, 30, 60 and 120 min). Similarly, for dosimetry study, mice with MM1S tumor xenografts received ≈80 µCi (2.96 MBq) of [^68Ga]Ga‐AJ206 and were sacrificed at pre‐determined time points (5, 30, 60, 90 and 120 min). All other mice were injected with ≈50µCi (1.85 MBq) [^68Ga]Ga‐AJ206 and were sacrificed at 60 min. The selected tissues were collected, weighed, counted, and their %ID g^−1 values calculated for biodistribution analysis. The tissues included blood, muscle, tumor, thymus, heart, lung, liver, pancreas, stomach, small intestine, large intestine, spleen, adrenals, kidney, bladder, femur, and brain.

[3] = test system: MOLP8 tumor xenografts; assay: as above; parameters: species or system NSG mice; settings: MOLP8 xenograft mice
Description: as §1, §2

[4] = Ex vivo biodistribution in mice with RPMI tumor xenografts; settings: both sexes, NSG, mouse, 60 min p.i., RPMI xenograft mice; for tissue uptake at 1 h: 50 µCi; for tissue to tissue ratio at 1 h: 50 uCi, total radioactivity
Description: as §1, §2

[5] = tumor/blood, read-out: Tumor/blood ratio
[6] = tumor/muscle, read-out: Tumor/muscle ratio
[7] = 60 min p.i., listed as [68Ga]Ga-AJ206

Compound: CC[C@H](C)[C@@H]1NC(=O)[C@@H]2CCCN2C(=O)[C@H](Cc2ccccc2)NC(=O)[C@H](CC(=O)O)NC(=O)[C@H](C)NC(=O)[C@@H]2CSCc3cc(cc(c3)CSC[C@H](NC(=O)[C@H](C)NC(=O)CCOCCOCCOCCNC(=O)CN3CCN(CC(=O)O)CCN(CC(=O)O)CC3)C(=O)N[C@@H](C(C)C)C(=O)N3CCC[C@H]3C(=O)N2)CSC[C@@H](C(N)=O)NC(=O)[C@H](Cc2ccc(O)cc2)NC(=O)[C@H](Cc2c[nH]c3ccccc23)NC1=O [[^68Ga]Ga‐AJ206, metal not drawn]
- logD [1]: -1.32 ± 0.08
- tissue to tissue ratio at 5 min [2, 5]: 0.32 ± 0.04
- tissue to tissue ratio at 0.5 h [2, 5]: 1.43 ± 0.46
- tissue to tissue ratio at 1 h [2, 5]: > 7
- tissue to tissue ratio at 2 h [2, 5]: 19.7 ± 6.57
- tissue to tissue ratio at 5 min [2, 6]: 2.94 ± 0.47
- tissue to tissue ratio at 0.5 h [2, 6]: 7.28 ± 1.89
- tissue to tissue ratio at 1 h [2, 6]: > 25
- tissue to tissue ratio at 2 h [2, 6]: 27.4 ± 18.6
- uptake in blood ([3]; 5 min p.i.): 8.25 ± 0.50 %ID g^−1
- uptake in femur ([3]; 5 min p.i.): 1.42 ± 0.09 %ID g^−1
- uptake in heart ([3]; 5 min p.i.): 3.13 ± 0.27 %ID g^−1
- uptake in kidney ([3]; 5 min p.i.): 11.17 ± 0.65 %ID g^−1
- uptake in liver ([3]; 5 min p.i.): 21.24 ± 1.31 %ID g^−1
- uptake in lungs ([3]; 5 min p.i.): 6.16 ± 0.16 %ID g^−1
- uptake in muscle ([3]; 5 min p.i.): 0.92 ± 0.11 %ID g^−1
- uptake in small intestine ([3]; 5 min p.i.): 1.95 ± 0.08 %ID g^−1
- uptake in spleen ([3]; 5 min p.i.): 2.28 ± 0.50 %ID g^−1
- uptake in stomach ([3]; 5 min p.i.): 1.08 ± 0.07 %ID g^−1
- uptake in tumor ([3]; 5 min p.i.): 2.58 ± 0.18 %ID g^−1
- uptake in blood ([3]; 30 min p.i.): 2.07 ± 0.30 %ID g^−1
- uptake in femur ([3]; 30 min p.i.): 0.65 ± 0.08 %ID g^−1
- uptake in heart ([3]; 30 min p.i.): 0.83 ± 0.18 %ID g^−1
- uptake in kidney ([3]; 30 min p.i.): 17.09 ± 1.77 %ID g^−1
- uptake in liver ([3]; 30 min p.i.): 6.39 ± 3.71 %ID g^−1
- uptake in lungs ([3]; 30 min p.i.): 1.86 ± 0.29 %ID g^−1
- uptake in muscle ([3]; 30 min p.i.): 0.37 ± 0.05 %ID g^−1
- uptake in small intestine ([3]; 30 min p.i.): 0.59 ± 0.14 %ID g^−1
- uptake in spleen ([3]; 30 min p.i.): 0.75 ± 0.14 %ID g^−1
- uptake in stomach ([3]; 30 min p.i.): 0.51 ± 0.06 %ID g^−1
- uptake in tumor ([3]; 30 min p.i.): 2.91 ± 0.84 %ID g^−1
- Tumor/blood ratio ([3]; 60 min p.i.): 7.20 ± 0.89
- Tumor/muscle ratio ([3]; 60 min p.i.): 27.12 ± 2.73
- uptake in blood ([3]; 60 min p.i.): 0.56 ± 0.09 %ID g^−1
- uptake in femur ([3]; 60 min p.i.): 0.28 ± 0.07 %ID g^−1
- uptake in heart ([3]; 60 min p.i.): 0.29 ± 0.03 %ID g^−1
- uptake in kidney ([3]; 60 min p.i.): 16 %ID g^−1 and 16.65 ± 2.52 %ID g^−1
- uptake in liver ([3]; 60 min p.i.): 1.22 ± 0.09 %ID g^−1
- uptake in lungs ([3]; 60 min p.i.): 0.71 ± 0.10 %ID g^−1
- uptake in muscle ([3]; 60 min p.i.): 0.14 ± 0.02 %ID g^−1
- uptake in small intestine ([3]; 60 min p.i.): 0.65 ± 0.09 %ID g^−1
- uptake in spleen ([3]; 60 min p.i.): 0.39 ± 0.03 %ID g^−1
- uptake in stomach ([3]; 60 min p.i.): 0.25 ± 0.06 %ID g^−1
- uptake in tumor ([3]; 60 min p.i.): 3.76 ± 0.25 %ID g^−1
- uptake in blood [3, 7]: 0.56±0.09 %ID g^−1
- uptake in femur [3, 7]: 0.28±0.07 %ID g^−1
- uptake in heart [3, 7]: 0.29±0.03 %ID g^−1
- uptake in kidney [3, 7]: 16.65±2.52 %ID g^−1
- uptake in liver [3, 7]: 1.22±0.09 %ID g^−1
- uptake in lungs [3, 7]: 0.71±0.10 %ID g^−1
- uptake in muscle [3, 7]: 0.14±0.02 %ID g^−1
- uptake in small intestine [3, 7]: 0.65±0.09 %ID g^−1
- uptake in spleen [3, 7]: 0.39±0.03 %ID g^−1
- uptake in stomach [3, 7]: 0.25±0.06 %ID g^−1
- uptake in tumor [3, 7]: 3.76±0.25 %ID g^−1
- uptake in blood ([3]; 120 min p.i.): 0.05 ± 0.01 %ID g^−1
- uptake in femur ([3]; 120 min p.i.): 0.07 ± 0.01 %ID g^−1
- uptake in heart ([3]; 120 min p.i.): 0.05 ± 0.01 %ID g^−1
- uptake in kidney ([3]; 120 min p.i.): 13.75 ± 0.23 %ID g^−1
- uptake in liver ([3]; 120 min p.i.): 0.42 ± 0.01 %ID g^−1
- uptake in lungs ([3]; 120 min p.i.): 0.16 ± 0.03 %ID g^−1
- uptake in muscle ([3]; 120 min p.i.): 0.07 ± 0.04 %ID g^−1
- uptake in small intestine ([3]; 120 min p.i.): 0.18 ± 0.04 %ID g^−1
- uptake in spleen ([3]; 120 min p.i.): 0.17 ± 0.02 %ID g^−1
- uptake in stomach ([3]; 120 min p.i.): 0.03 ± 0.01 %ID g^−1
- uptake in tumor ([3]; 120 min p.i.): 1.46 ± 0.02 %ID g^−1
- blood pool activity cleared ([3]; by 60 min): ~95%
- tissue uptake at 1 h ([4]; blood, read-out: uptake in blood): 0.98 ± 0.48 %ID/g
- tissue uptake at 1 h ([4]; heart, read-out: uptake in heart): 0.63 ± 0.21 %ID/g
- tissue uptake at 1 h ([4]; kidney, read-out: uptake in kidney): 17.8 ± 3.48 %ID/g
- tissue uptake at 1 h ([4]; liver, read-out: uptake in liver): 1.27 ± 0.3 %ID/g
- tissue uptake at 1 h ([4]; lung, read-out: uptake in lung): 1 ± 0.26 %ID/g
- tissue uptake at 1 h ([4]; muscle, read-out: uptake in muscle): 0.49 ± 0.07 %ID/g
- tissue uptake at 1 h ([4]; pancreas, read-out: uptake in pancreas): 0.48 ± 0.15 %ID/g
- tissue uptake at 1 h ([4]; small intestine, read-out: uptake in small intestine): 0.59 ± 0.25 %ID/g
- tissue uptake at 1 h ([4]; spleen, read-out: uptake in spleen): 1.09 ± 0.15 %ID/g
- tissue uptake at 1 h ([4]; stomach, read-out: uptake in stomach): 0.45 ± 0.07 %ID/g
- tissue uptake at 1 h ([4]; tumor, read-out: uptake in tumor): 1.78 ± 0.36 %ID/g
- tissue to tissue ratio at 1 h ([4]; tumor/blood, read-out: Tumor/Blood ratio): 2.69 ± 0.65
- tissue to tissue ratio at 1 h ([4]; tumor/muscle, read-out: Tumor/Muscle ratio): 3.72 ± 0.73
